From patent US8129371B2, “Thienopyrimidine and pyrazolopyrimidine compounds and their use as mTOR kinase and PI3 kinase inhibitors” (Wyeth LLC, priority 2007, dated 2012)
Where two headings read alike, the source gives them in different places.

Assays:
Human mTOR (FLAG-TOR) = biological target: T1, Human mTOR (FLAG-TOR) (Homo sapiens, UniProt P42345); experiment: Human mTOR kinase assay with purified enzyme, DELFIA format; format: biochemical
T1 construct: FLAG
Summary of the method: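 DELFIA readout: Eu-anti-P(T389)-S6K antibody (40 ng/mL, 1 h) on captured His6-S6K from the stopped reaction. Kinase step used purified FLAG-tagged human mTOR with test compound in HEPES (pH 7.4)/MnCl2/DTT buffer, 2 h at room temperature (linear 1–6 h), terminated by EDTA/EGTA.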

prostate line LNCap = experiment: In vitro cell culture growth assay (MTS), LNCap; format: cell-based; conditions: Homo sapiens, LNCaP, 72 h, LNCap cells, three days after drug treatment
Summary of the method: (§1)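 Plate cells; add inhibitors on day 1; after 3 days' treatment, add MTS; read A490; express as percent growth of vehicle-treated control.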

PI3K [1] = biological target: T2, PI3K (Homo sapiens, UniProt P42336); experiment: Fluorescence polarization assay for PI3K; format: biochemical; conditions: read-out: PI3 Kinase α IC50
T2 construct: PI3 Kinase α IC50; other: PI3 Kinase α; other: PI3 Kinase α isoform, fluorescence polarization
Summary of the method: (§2)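 Fluorescence-polarization competition readout: after 30–60 min of PIP2/ATP turnover in 1% DMSO, a stop mix with GST-GRP (70 nM) and red probe (10 nM) was added.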

PI3K [2] = biological target: T3, PI3K (Homo sapiens, UniProt P48736); experiment: Fluorescence polarization assay for PI3K; format: biochemical; conditions: read-out: PI3 Kinase γ IC50
T3 construct: PI3 Kinase γ IC50; other: PI3 Kinase γ; other: PI3 Kinase γ isoform, fluorescence polarization
Summary of the method: as §2

breast line MDA468 = experiment: In vitro cell culture growth assay (MTS), MDA468; format: cell-based; conditions: Homo sapiens, 72 h, MDA468 cells, three days after drug treatment
Summary of the method: as §1

[3] = purified human mTOR enzyme, DELFIA format
[4] = PI3 Kinase α isoform, fluorescence polarization
[5] = PI3 Kinase γ isoform, fluorescence polarization

T3 sequence (P48736 whole entry, canonical isoform): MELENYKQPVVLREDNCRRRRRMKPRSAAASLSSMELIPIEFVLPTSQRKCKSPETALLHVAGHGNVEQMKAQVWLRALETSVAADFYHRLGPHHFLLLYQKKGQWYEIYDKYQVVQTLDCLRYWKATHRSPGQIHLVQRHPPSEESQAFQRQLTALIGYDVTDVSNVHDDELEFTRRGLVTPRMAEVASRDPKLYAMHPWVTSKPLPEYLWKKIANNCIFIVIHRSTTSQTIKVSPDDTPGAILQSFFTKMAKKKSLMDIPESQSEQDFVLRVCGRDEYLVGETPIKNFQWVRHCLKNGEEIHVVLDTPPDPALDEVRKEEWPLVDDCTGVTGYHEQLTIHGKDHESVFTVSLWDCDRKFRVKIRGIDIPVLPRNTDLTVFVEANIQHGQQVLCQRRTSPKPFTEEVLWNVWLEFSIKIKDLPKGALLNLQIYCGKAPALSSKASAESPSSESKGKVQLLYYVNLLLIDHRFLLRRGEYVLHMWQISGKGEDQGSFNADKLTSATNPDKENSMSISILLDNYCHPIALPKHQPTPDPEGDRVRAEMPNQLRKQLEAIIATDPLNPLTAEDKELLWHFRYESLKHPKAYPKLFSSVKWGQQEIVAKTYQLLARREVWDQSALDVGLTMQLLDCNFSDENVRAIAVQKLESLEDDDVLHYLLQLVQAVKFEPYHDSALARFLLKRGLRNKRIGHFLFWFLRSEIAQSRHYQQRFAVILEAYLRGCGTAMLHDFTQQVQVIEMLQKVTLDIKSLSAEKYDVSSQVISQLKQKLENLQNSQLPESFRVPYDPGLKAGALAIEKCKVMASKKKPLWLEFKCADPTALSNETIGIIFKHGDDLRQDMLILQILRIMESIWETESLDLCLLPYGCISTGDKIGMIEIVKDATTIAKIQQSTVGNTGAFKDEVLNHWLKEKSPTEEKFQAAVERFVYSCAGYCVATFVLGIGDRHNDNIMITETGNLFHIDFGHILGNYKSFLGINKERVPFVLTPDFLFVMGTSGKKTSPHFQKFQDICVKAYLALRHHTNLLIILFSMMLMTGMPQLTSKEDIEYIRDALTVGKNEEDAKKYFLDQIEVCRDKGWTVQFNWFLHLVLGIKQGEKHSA
T2 sequence (P42336 whole entry, canonical isoform): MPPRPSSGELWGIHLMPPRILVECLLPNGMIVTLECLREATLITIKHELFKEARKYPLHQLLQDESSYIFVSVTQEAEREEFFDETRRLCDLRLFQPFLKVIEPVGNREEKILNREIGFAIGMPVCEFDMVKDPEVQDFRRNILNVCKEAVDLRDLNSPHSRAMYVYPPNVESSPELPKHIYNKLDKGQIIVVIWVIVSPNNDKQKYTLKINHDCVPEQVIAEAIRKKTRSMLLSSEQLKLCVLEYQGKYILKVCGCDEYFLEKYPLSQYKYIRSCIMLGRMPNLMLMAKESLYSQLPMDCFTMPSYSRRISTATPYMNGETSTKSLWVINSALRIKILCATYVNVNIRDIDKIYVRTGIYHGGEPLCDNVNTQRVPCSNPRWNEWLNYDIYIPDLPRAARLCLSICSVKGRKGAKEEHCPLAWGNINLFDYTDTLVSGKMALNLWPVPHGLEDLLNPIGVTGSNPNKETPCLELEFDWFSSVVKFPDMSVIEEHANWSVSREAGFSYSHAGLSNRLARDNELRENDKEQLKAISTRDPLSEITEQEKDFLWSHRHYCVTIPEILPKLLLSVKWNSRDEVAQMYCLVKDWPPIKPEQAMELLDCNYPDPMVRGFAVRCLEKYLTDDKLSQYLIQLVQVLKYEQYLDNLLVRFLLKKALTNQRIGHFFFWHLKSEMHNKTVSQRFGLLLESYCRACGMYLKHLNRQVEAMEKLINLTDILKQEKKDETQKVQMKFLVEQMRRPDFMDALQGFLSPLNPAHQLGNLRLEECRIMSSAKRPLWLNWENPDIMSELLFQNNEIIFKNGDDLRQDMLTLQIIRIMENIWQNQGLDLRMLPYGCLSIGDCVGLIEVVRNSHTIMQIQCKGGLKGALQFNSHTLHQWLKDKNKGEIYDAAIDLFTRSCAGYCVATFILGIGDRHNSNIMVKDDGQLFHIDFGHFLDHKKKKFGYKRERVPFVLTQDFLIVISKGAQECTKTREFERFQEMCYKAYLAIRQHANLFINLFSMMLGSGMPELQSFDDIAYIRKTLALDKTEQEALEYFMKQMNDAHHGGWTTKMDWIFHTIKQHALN

Compound	IC50 (Human mTOR (FLAG-TOR))	IC50 (prostate line LNCap)	IC50 (PI3K [1]; PI3 Kinase α)	IC50 (PI3K [2]; PI3 Kinase γ)	IC50 (Human mTOR (FLAG-TOR); [3])	IC50 (PI3K [1]; [4])	IC50 (PI3K [2]; [5])	IC50 (breast line MDA468)
CN1CCN(Cc2cc3nc(-c4ccc(NC(=O)Nc5ccc(C(N)=O)cc5)cc4)nc(N4CC5CCC(C4)O5)c3s2)CC1 [Example 428, 4-{[(4-{6-[(4-methylpiperazin-1-yl)methyl]-4-(8-oxa-3-azabicyclo[3.2.1]oct-3-yl)thieno[3,2-d]pyrimidin-2-yl}phenyl)carbamoyl]amino}benzamide]	–	240 nM	–	–	1.5 nM	34 nM	815 nM	110 nM
CC(C)(C)n1ncc2c(N3CC4CCC(C3)O4)nc(-c3ccc(NC(=O)Nc4ccccc4)cc3)nc21 [Example 99]	1.8 nM	68 nM	130 nM	577 nM	–	–	–	280 nM
CN1CCN(c2ccc(NC(=O)Nc3ccc(-c4nc(N5CC6CCC(C5)O6)c5cnn([C@H]6CC[C@H](O)CC6)c5n4)cc3)cc2)CC1 (relative stereo) [Example 404, 1-{4-[1-(trans-4-hydroxycyclohexyl)-4-(8-oxa-3-azabicyclo[3.2.1]oct-3-yl)-1H-pyrazolo[3,4-d]pyrimidin-6-yl]phenyl}-3-[4-(4-methylpiperazin-1-yl)phenyl]urea]	–	< 1 nM	–	–	0.19 nM	93 nM	1140 nM	18 nM
CNC(=O)Nc1ccc(-c2nc(N3CC4CCC(C3)O4)c3cnn(C4CCC5(CC4)OCC(C)(C)CO5)c3n2)cc1 [Example 152, 1-{4-[1-(3,3-dimethyl-1,5-dioxaspiro[5.5]undec-9-yl)-4-(8-oxa-3-azabicyclo[3.2.1]oct-3-yl)-1H-pyrazolo[3,4-d]pyrimidin-6-yl]phenyl}-3-methylurea]	0.6 nM	3 nM	566 nM	> 10000 nM	–	–	–	180 nM
CCNC(=O)Nc1ccc(-c2nc(N3CC4CCC(C3)O4)c3cnn(CCN(C)C)c3n2)cc1 [Example 160, 1-(4-{1-[2-(dimethylamino)ethyl]-4-(8-oxa-3-azabicyclo[3.2.1]oct-3-yl)-1H-pyrazolo[3,4-d]pyrimidin-6-yl}phenyl)-3-ethylurea]	13 nM	280 nM	3120 nM	> 10000 nM	–	–	–	1800 nM
CCNC(=O)Nc1ccc(-c2nc(N3CC4CCC(C3)O4)c3cnn(C(C)(C)C)c3n2)cc1 [Example 94]	0.51 nM	50 nM	804 nM	> 10000 nM	–	–	–	490 nM
N#CCCn1ncc2c(N3CC4CCC(C3)O4)nc(-c3ccc(NC(=O)NC4CC4)cc3)nc21 [Example 215, 1-{4-[1-(2-cyanoethyl)-4-(8-oxa-3-azabicyclo[3.2.1]oct-3-yl)-1H-pyrazolo[3,4-d]pyrimidin-6-yl]phenyl}-3-cyclopropylurea]	1.35 nM	78 nM	3600 nM	> 10000 nM	–	–	–	800 nM
O=C(Nc1ccc(CCO)cc1)Nc1ccc(-c2nc(N3C4CCC3COC4)c3cnn(CC(F)(F)F)c3n2)cc1 [Example 272, 1-[4-(2-hydroxyethyl)phenyl]-3-{4-[4-(3-oxa-8-azabicyclo[3.2.1]oct-8-yl)-1-(2,2,2-trifluoroethyl)-1H-pyrazolo[3,4-d]pyrimidin-6-yl]phenyl}urea]	0.106 nM	< 1 nM	132 nM	1150 nM	–	–	–	1 nM
CCn1ncc2c(N3CC4CCC(C3)O4)nc(-c3ccc(NC(=O)Nc4ccc(N5CCNCC5)cc4)cc3)nc21 [Example 288, 1-{4-[1-ethyl-4-(8-oxa-3-azabicyclo[3.2.1]oct-3-yl)-1H-pyrazolo[3,4-d]pyrimidin-6-yl]phenyl}-3-(4-piperazin-1-ylphenyl)urea]	0.575 nM	< 1 nM	53 nM	534 nM	–	–	–	50 nM
O=C(Nc1ccccc1)Nc1ccc(-c2nc(N3CC4CCC(C3)O4)c3cnn(C4CCC5(CC4)OCCO5)c3n2)cc1 [Example 127, 1-{4-[1-(1,4-dioxaspiro[4.5]dec-8-yl)-4-(8-oxa-3-azabicyclo[3.2.1]oct-3-yl)-1H-pyrazolo[3,4-d]pyrimidin-6-yl]phenyl}-3-phenylurea]	0.155 nM	4 nM	353 nM	> 10000 nM	–	–	–	18 nM
COCC(COC)n1ncc2c(N3CC4CCC(C3)O4)nc(-c3ccc(NC(=O)Nc4ccncc4)cc3)nc21 [Example 325, 1-(4-{1-[2-methoxy-1-(methoxymethyl)ethyl]-4-(8-oxa-3-azabicyclo[3.2.1]oct-3-yl)-1H-pyrazolo[3,4-d]pyrimidin-6-yl}phenyl)-3-pyridin-4-ylurea]	–	2 nM	–	–	1.6 nM	601 nM	4980 nM	19 nM
O=C(Nc1ccncc1)Nc1ccc(-c2nc(N3CC4CCC(C3)O4)c3cnn(C4CCC5(CC4)OCCO5)c3n2)cc1 [Example 128, 1-{4-[1-(1,4-dioxaspiro[4.5]dec-8-yl)-4-(8-oxa-3-azabicyclo[3.2.1]oct-3-yl)-1H-pyrazolo[3,4-d]pyrimidin-6-yl]phenyl}-3-pyridin-4-ylurea]	0.125 nM	< 1 nM	220 nM	1930 nM	–	–	–	1 nM

Further lines, with some results ahead:

IC50 (Human mTOR (FLAG-TOR))	IC50 (prostate line LNCap)	IC50 (PI3K [1]; PI3 Kinase α)	IC50 (PI3K [2]; PI3 Kinase γ)	IC50 (Human mTOR (FLAG-TOR); [3])	IC50 (PI3K [1]; [4])	IC50 (PI3K [2]; [5])	Compound	IC50 (breast line MDA468)
8.5 nM	700 nM	3340 nM	12000 nM	–	–	–	CCOC(=O)Nc1ccc(-c2nc(N3CC4CCC(C3)O4)c3cnn(C4CCN(C(=O)OC)CC4)c3n2)cc1 [Example 111, methyl 4-[6-{4-[(ethoxycarbonyl)amino]phenyl}-4-(8-oxa-3-azabicyclo[3.2.1]oct-3-yl)-1H-pyrazolo[3,4-d]pyrimidin-1-yl]piperidine-1-carboxylate]	6000 nM
1.1 nM	410 nM	437 nM	5790 nM	–	–	–	Cn1ncc2c(N3CC4CCC(C3)O4)nc(-c3ccc(NC(=O)NCCO)cc3)nc21 [Example 54, 1-(2-hydroxyethyl)-3-{4-[1-methyl-4-(8-oxa-3-azabicyclo[3.2.1]oct-3-yl)-1H-pyrazolo[3,4-d]pyrimidin-6-yl]phenyl}urea]	1200 nM
2.25 nM	40 nM	3710 nM	4950 nM	–	–	–	O=C(Nc1ccc(-c2nc(N3CC4CCC(C3)O4)c3cnn(C4CCN(CC(F)(F)F)CC4)c3n2)cc1)OCCO [Example 209, 2-hydroxyethyl (4-{4-(8-oxa-3-azabicyclo[3.2.1]oct-3-yl)-1-[1-(2,2,2-trifluoroethyl)piperidin-4-yl]-1H-pyrazolo[3,4-d]pyrimidin-6-yl}phenyl)carbamate]	600 nM
0.34 nM	12 nM	4930 nM	6590 nM	–	–	–	COC(=O)N1CCC(n2ncc3c(N4CC5CCC(C4)O5)nc(-c4ccc(NC(=O)NCCF)cc4)nc32)CC1 [Example 10, methyl 4-[6-(4-{[(2-fluoroethyl)carbamoyl]amino}phenyl)-4-(8-oxa-3-azabicyclo[3.2.1]oct-3-yl)-1H-pyrazolo[3,4-d]pyrimidin-1-yl]piperidine-1-carboxylate]	220 nM
0.27 nM	23 nM	831 nM	11000 nM	–	–	–	CC(C)n1ncc2c(N3CC4CCC(C3)O4)nc(-c3ccc(NC(=O)OCCO)cc3)nc21 [Example 144, 2-hydroxyethyl {4-[1-isopropyl-4-(8-oxa-3-azabicyclo[3.2.1]oct-3-yl)-1H-pyrazolo[3,4-d]pyrimidin-6-yl]phenyl}carbamate]	270 nM
0.08 nM	< 1 nM	29 nM	1820 nM	–	–	–	COC(=O)N1CCC(n2ncc3c(N4CC5CCC(C4)O5)nc(-c4ccc(NC(=O)Nc5ccc(CO)cc5)cc4)nc32)CC1 [Example 164, methyl 4-{6-[4-({[4-(hydroxymethyl)phenyl]carbamoyl}amino)phenyl]-4-(8-oxa-3-azabicyclo[3.2.1]oct-3-yl)-1H-pyrazolo[3,4-d]pyrimidin-1-yl}piperidine-1-carboxylate]	< 1 nM
0.8 nM	30 nM	396 nM	7020 nM	–	–	–	CC(C)C(=O)N1CCC(n2ncc3c(N4CC5CCC(C4)O5)nc(-c4ccc(NC(=O)Nc5ccccc5)cc4)nc32)CC1 [Example 87, 1-{4-[1-(1-isobutyrylpiperidin-4-yl)-4-(8-oxa-3-azabicyclo[3.2.1]oct-3-yl)-1H-pyrazolo[3,4-d]pyrimidin-6-yl]phenyl}-3-phenylurea]	120 nM
–	20 nM	–	–	0.3 nM	227 nM	> 10000 nM	CNC(=O)Nc1ccc(-c2nc(N3CC4CCC(C3)O4)c3cnn([C@H]4CC[C@@H](O)CC4)c3n2)cc1 (relative stereo) [Example 381, 1-{4-[1-(cis-4-hydroxycyclohexyl)-4-(8-oxa-3-azabicyclo[3.2.1]oct-3-yl)-1H-pyrazolo[3,4-d]pyrimidin-6-yl]phenyl}-3-methylurea]	51 nM
